Experimental data from patent publication US9770452B2, “Quinoxaline derivatives as GPR6 modulators” (Takeda Pharmaceutical Company Limited, priority 2012, dated 2017).
Where a name gives a salt, the structure may show the parent alone.

Target: T1, GPR6 receptor (Homo sapiens, UniProt P46095)
T1 construct: expressed in transfected cells
Experiment: Inhibition of cAMP Activity of GPR6 In Vitro Assay (CHO-K1 cells, HTRF cAMP)
Format: cell-based
Settings: compounds of Compound Table 1; inhibition of constitutive cAMP activity of GPR6 expressed in CHO-K1 cells; approximate IC50; read-out: IC50
Description: Inhibition of cAMP Activity of GPR6 In Vitro Assay
This cell based assay measures the ability of compounds to inhibit the constitutive cAMP activity of GPR6 receptor expressed in CHO-K1 cells. CHO cells were stably expressed with GPR6 receptor, whose expression is controlled by a tetracycline inducable element. The cells were cultured in medium containing F12K, 10% FBS, 1% Penn/Strep, 200 ug/mL Hygromycin. GPR6 receptor expression was induced for 20 hrs with 1 μg/ml doxycycline (sigma D9891) in growth media. After addition of doxycycline cells were plated at a density of 250-500 cells per well in half-volume black clear bottom plates (Costar) and place in an incubator (37°, 5% C(O)2) for 20 hours prior to cAMP assays.
Culture media was removed from cells and they were washed with 50 μL of Ringer's Buffer (MgCl2 0.047 mg/mL, NaH2PO4 0.18 mg/mL, Na2HPO4 0.1 mg/mL, KCl 0.34 mg/mL, NaHC(O)3 1.26 mg/mL, D-glucose 1.8 mg/mL, NaCl 7 mg/mL; pH=7.4). Compounds suspended in DMSO were diluted in Ringer's Buffer containing 0.5% fatty acid free BSA and incubated on cells for 45 min at […] and 5% C(O)2. After incubation cells were incubated for 10 min at room temp with Eu-cAMP tracer solution from a Perkin Elmer Lance HTRF UltracAMP assay kit (TRF0264). Then ULight™-anti-cAMP solution from the Lance HTRF kit was added and incubated on a shaker at room temp for 1 hour prior to HTRF detection in a BMG PolarStar Omega.
IC50 curves were generated with a four-parameter logistic equation using GraphPad Prism 5.03.

T1 sequence (P46095 whole entry): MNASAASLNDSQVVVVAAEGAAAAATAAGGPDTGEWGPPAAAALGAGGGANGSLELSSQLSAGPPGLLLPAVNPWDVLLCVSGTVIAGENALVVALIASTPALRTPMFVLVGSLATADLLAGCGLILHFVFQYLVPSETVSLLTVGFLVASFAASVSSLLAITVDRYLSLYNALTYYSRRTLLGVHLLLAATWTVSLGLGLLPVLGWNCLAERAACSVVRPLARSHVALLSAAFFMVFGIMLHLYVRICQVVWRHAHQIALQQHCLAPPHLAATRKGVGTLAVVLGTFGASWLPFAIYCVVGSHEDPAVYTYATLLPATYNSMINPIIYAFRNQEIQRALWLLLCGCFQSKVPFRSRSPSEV

| Molecule | IC50 |
| --- | --- |
| (1-(2-(cyclopropylamino)pyrido[3,4-b]pyrazin-3-yl)piperidin-4-yl)(thiophen-3-yl)methanone, 2,2,2-trifluoroacetic acid salt [Cpd 584] | 1.74 µM |
| 3-(4-((4-bromo-2-fluorophenyl)sulfonyl)piperazin-1-yl)-2-(cyclopropylamino)quinoxaline-6-carbonitrile, 2,2,2-trifluoroacetic acid salt [Cpd 285] | 1.36 µM |
| 3-(4-(2,4-difluorobenzyl)piperidin-1-yl)-2-(isopropylamino)quinoxaline-6-carbonitrile [Cpd 461] | 0.02 µM |
| N2-cyclopropyl-3-(4-(2-fluoro-4-methoxyphenoxy)piperidin-1-yl)-N5,N5-dimethylpyrido[3,4-b]pyrazine-2,5-diamine, 2,2,2-trifluoroacetic acid salt [Cpd 607] | 0.043 µM |
| 3-(4-(2,5-dichlorobenzyl)piperazin-1-yl)-N-(pyrimidin-4-yl)quinoxalin-2-amine, 2,2,2-trifluoroacetic acid salt [Cpd 174] | 1.67 µM |
| (1-(2-(cyclopropylamino)pyrido[3,4-b]pyrazin-3-yl)piperidin-4-yl)(2,4,6-trifluorophenyl)methanone, 2,2,2-trifluoroacetic acid salt [Cpd 444] | 0.2 µM |
| 3-(4-(2-fluoro-4-methoxybenzyl)piperidin-1-yl)-2-(isopropylamino)pyrido[3,4-b]pyrazine-7-carbonitrile, 2,2,2-trifluoroacetic acid salt [Cpd 636] | 0.016 µM |
| COc1ccc(OC2CCN(c3nc4c(C(=O)N(C)C)nccc4nc3NC3CC3)CC2)c(F)c1 [Cpd 604, 2-(cyclopropylamino)-3-(4-(2-fluoro-4-methoxyphenoxy)piperidin-1-yl)-N,N-dimethylpyrido[3,4-b]pyrazine-5-carboxamide] | 0.054 µM |
| 3-(4-(3-chloro-4-fluorobenzyl)piperazin-1-yl)-N-cyclopropylpyrido[3,4-b]pyrazin-2-amine, 2,2,2-trifluoroacetic acid salt [Cpd 315] | 0.05 µM |
| (1-(2-(cyclopropylamino)pyrido[3,4-b]pyrazin-3-yl)piperidin-4-yl)(3-methoxyphenyl)methanone [Cpd 564] | 11 µM |
| Cc1ccc(Nc2nc3ccccc3nc2N2CCN(Cc3cccc(Cl)c3)CC2)cc1 [Cpd 30, 3-(4-(3-chlorobenzyl)piperazin-1-yl)-N-(p-tolyl)quinoxalin-2-amine, 2,2,2-trifluoroacetic acid salt] | 26.2 µM |
| 2-(cyclopropylamino)-3-(4-(2,4-difluorophenoxy)piperidin-1-yl)-N,N-dimethylpyrido[3,4-b]pyrazine-7-carboxamide [Cpd 597] | 0.089 µM |
| (2-chloro-4-fluorophenyl)(4-(2-(cyclopropylamino)pyrido[3,4-b]pyrazin-3-yl)piperazin-1-yl)methanone, 2,2,2-trifluoroacetic acid salt [Cpd 363] | 0.23 µM |
| (S)-3-(cyclopropylamino)-2-(4-((2,4-difluorophenyl)fluoromethyl)piperidin-1-yl)quinoxaline-6-carbonitrile [Cpd 509] | 0.049 µM |
| 3-(4-((4-(tert-butyl)phenyl)sulfonyl)piperazin-1-yl)-2-(cyclopropylamino)quinoxaline-6-carbonitrile, 2,2,2-trifluoroacetic acid salt [Cpd 280] | 0.45 µM |
| (R)-(2-(cyclopropylamino)-3-(4-((2,4-difluorophenyl)fluoromethyl)piperidin-1-yl)pyrido[3,4-b]pyrazin-7-yl)(morpholino)methanone, 2,2,2-trifluoroacetic acid salt [Cpd 580] | 0.008 µM |
| (S)-2-(cyclopropylamino)-3-(4-((2,4-difluorophenyl)fluoromethyl)piperidin-1-yl)-N,N-dimethylpyrido[3,4-b]pyrazine-7-carboxamide, 2,2,2-trifluoroacetic acid salt [Cpd 577] | 4.9 µM |
| N-cyclopropyl-3-(4-((5-methylisoxazol-3-yl)methyl)piperazin-1-yl)quinoxalin-2-amine, 2,2,2-trifluoroacetic acid salt [Cpd 158] | 0.44 µM |
| 3-(4-(2,5-dichlorobenzyl)piperazin-1-yl)-N-(tetrahydro-2H-pyran-4-yl)quinoxalin-2-amine, 2,2,2-trifluoroacetic acid salt [Cpd 171] | 1.57 µM |

| Molecule | IC50 |
| --- | --- |
| 3-(4-(2,5-difluorobenzoyl)piperidin-1-yl)-2-(isopropylamino)pyrido[3,4-b]pyrazine-7-carbonitrile, 2,2,2-trifluoroacetic acid salt [Cpd 631] | 0.006 µM |
| Clc1ccc(Cl)c(CN2CCN(c3nc4cc(Br)ccc4nc3NC3CC3)CC2)c1 [Cpd 46, 6-bromo-N-cyclopropyl-3-(4-(2,5-dichlorobenzyl)piperazin-1-yl)quinoxalin-2-amine, 2,2,2-trifluoroacetic acid salt] | 4.82 µM |
| N-cyclopropyl-3-(4-(2,4-difluorophenoxy)piperidin-1-yl)pyrazino[2,3-d]pyridazin-2-amine, 2,2,2-trifluoroacetic acid salt [Cpd 619] | 0.014 µM |
| 3-(4-(2,4-difluorophenoxy)piperidin-1-yl)-N-(2-methoxyethyl)pyrido[3,4-b]pyrazin-2-amine, 2,2,2-trifluoroacetic acid salt [Cpd 525] | 0.029 µM |
| 2-(cyclopropylamino)-3-(4-(phenylsulfonyl)piperazin-1-yl)quinoxaline-6-carbonitrile [Cpd 162] | 4.63 µM |
| (4-chlorophenyl)(4-(3-(pyridin-3-ylamino)quinoxalin-2-yl)piperazin-1-yl)methanone, 2,2,2-trifluoroacetic acid salt [Cpd 223] | 5.62 µM |
| N-cyclohexyl-3-(4-(2,5-dichlorobenzyl)piperazin-1-yl)quinoxalin-2-amine, 2,2,2-trifluoroacetic acid salt [Cpd 170] | 4.07 µM |
| 8-chloro-3-(4-(5-chloro-2-fluorobenzyl)piperazin-1-yl)-N-cyclopropylpyrido[3,4-b]pyrazin-2-amine, 2,2,2-trifluoroacetic acid salt [Cpd 351] | 0.062 µM |
| N-cyclopropyl-3-(4-(2-methoxyphenoxy)piperidin-1-yl)pyrido[3,4-b]pyrazin-2-amine, 2,2,2-trifluoroacetic acid salt [Cpd 559] | 0.067 µM |
| Clc1cccc(CN2CCN(c3nc4ccccc4nc3NC3CC3)CC2)c1 [Cpd 5, 3-(4-(3-chlorobenzyl)piperazin-1-yl)-N-cyclopropylquinoxalin-2-amine, 2,2,2-trifluoroacetic acid salt] | 40.6 µM |
| (S)-3-(cyclopropylamino)-2-(4-((2,4-difluorophenyl)fluoromethyl)piperidin-1-yl)pyrido[3,4-b]pyrazine-7-carbonitrile [Cpd 550] | 0.017 µM |
| N-cyclopropyl-3-(4-(2,3,5-trichlorobenzyl)piperazin-1-yl)quinoxalin-2-amine, 2,2,2-trifluoroacetic acid salt [Cpd 221] | 20.4 µM |
| 2-(cyclopropylamino)-3-(4-((2,4-difluorophenyl)fluoromethyl)piperidin-1-yl)quinoxaline-6-carbonitrile, 2,2,2-trifluoroacetic acid salt [Cpd 480] | 0.072 µM |
| (S)-2-(cyclopropylamino)-3-(4-((2,4-difluorophenyl)fluoromethyl)piperidin-1-yl)-N,N-dimethylpyrido[3,4-b]pyrazine-7-carboxamide, 2,2,2-trifluoroacetic acid salt [Cpd 576] | 2.88 µM |
| (S)-(2-(cyclopropylamino)-3-(4-((2,4-difluorophenyl)fluoromethyl)piperidin-1-yl)pyrido[3,4-b]pyrazin-7-yl)(morpholino)methanone, 2,2,2-trifluoroacetic acid salt [Cpd 579] | 0.01 µM |
| 3-(4-(2,5-difluorobenzyl)piperazin-1-yl)-2-((6-methoxypyridin-3-yl)amino)quinoxaline-6-carbonitrile, 2,2,2-trifluoroacetic acid salt [Cpd 333] | 0.097 µM |
| N#Cc1ccc(C(=O)N2CCN(c3nc4ccccc4nc3NC3CC3)CC2)cc1 [Cpd 75, 4-(4-(3-(cyclopropylamino)quinoxalin-2-yl)piperazine-1-carbonyl)benzonitrile, 2,2,2-trifluoroacetic acid salt] | 21.8 µM |
| Cc1cc(Br)ccc1C(=O)N1CCN(c2nc3ccccc3nc2NC2CC2)CC1 [Cpd 122, (4-bromo-2-methylphenyl)(4-(3-(cyclopropylamino)quinoxalin-2-yl)piperazin-1-yl)methanone, 2,2,2-trifluoroacetic acid salt] | 10.3 µM |
| N-cyclopropyl-3-(4-(4-fluorobenzyl)piperazin-1-yl)pyrido[3,4-b]pyrazin-2-amine, 2,2,2-trifluoroacetic acid salt [Cpd 291] | 0.14 µM |
